This note sets out measurements from US7384927B2, “Alkylated porphyrins as pesticides acting both in the presence and absence of light” (priority 2003, dated 2008).

One test concerns Bactrocera oleae flies. As to the kind of experiment: Insecticidal action in the dark: fly survival after porphyrin bait. The test is classed as in vivo. Particulars: fed 24 h, survival 12 h after change to porphyrin-free bait. The method, then:
(§1) These flies were then used in the various experimental sessions. […] The number of survivors was evaluated 12 h after switching from administration of a porphyrin-containing bait to a porphyrin-free bait. In none of the experiments was mortality or any apparent toxic effect observed in control flies (flies not fed with porphyrin, see survival at 0 μM porphyrin concentration).

Test [1] relates to Stomoxis calcitrans flies. The test is described as above. It counts as in vivo. Particulars: fed 24 h, survival 12 h after change to porphyrin-free bait. The method, then: as §1

As for `CCCCCCCCCCCC[n+]1ccc(-c2c3nc(c(-c4cc[n+](C)cc4)c4ccc([nH]4)c(-c4cc[n+](C)cc4)c4nc(c(-c5cc[n+](C)cc5)c5ccc2[nH]5)C=C4)C=C3)cc1` [C12, meso[tri(N-methyl-pyridyl), mono(N-dodecyl-pyridyl)]porphine], the “Survival (% of control untreated flies)” value in the test with Bactrocera oleae flies (0.75 μM in bait) was 100 % of control untreated flies; in the test with Bactrocera oleae flies (1.25 μM in bait), 100 % of control untreated flies; with Bactrocera oleae flies (2.10 μM in bait) it was 85 % of control untreated flies; in the test with Bactrocera oleae flies (3.00 μM in bait) it was 72 % of control untreated flies; with Bactrocera oleae flies (5.00 μM in bait), 58 % of control untreated flies; with Bactrocera oleae flies (8.10 μM in bait), 51 % of control untreated flies. The “Survival (% of control untreated flies)” value is recorded as 100 % of control untreated flies in test [1] (0.75 μM in bait); 82 % of control untreated flies in test [1] (1.25 μM in bait); 64 % of control untreated flies in test [1] (2.10 μM in bait); 47 % of control untreated flies in test [1] (3.00 μM in bait); 29 % of control untreated flies in test [1] (5.00 μM in bait); 16 % of control untreated flies in test [1] (8.10 μM in bait).
For `CCCCCCCCCCCCCC[n+]1ccc(-c2c3nc(c(-c4cc[n+](C)cc4)c4ccc([nH]4)c(-c4cc[n+](C)cc4)c4nc(c(-c5cc[n+](C)cc5)c5ccc2[nH]5)C=C4)C=C3)cc1` [C14, meso[tri(N-methyl-pyridyl), mono(N-tetradecyl-pyridyl)]porphine], the “Survival (% of control untreated flies)” value is on record as 100 % of control untreated flies in the test on Bactrocera oleae flies (0.75 μM in bait); 100 % of control untreated flies in the test on Bactrocera oleae flies (1.25 μM in bait); 69 % of control untreated flies with Bactrocera oleae flies (2.10 μM in bait); 50 % of control untreated flies in the test on Bactrocera oleae flies (3.00 μM in bait); 37 % of control untreated flies in the test on Bactrocera oleae flies (5.00 μM in bait); 19 % of control untreated flies in the test with Bactrocera oleae flies (8.10 μM in bait). Further, the “Survival (% of control untreated flies)” value in test [1] (0.75 μM in bait) is given as 100 % of control untreated flies; in test [1] (1.25 μM in bait) it was 77 % of control untreated flies; in test [1] (2.10 μM in bait), 52 % of control untreated flies; in test [1] (3.00 μM in bait), 31 % of control untreated flies; in test [1] (5.00 μM in bait) it was 11 % of control untreated flies; in test [1] (8.10 μM in bait), 3 % of control untreated flies.
As to `CCCCCCCCCCCCCCCCCC[n+]1ccc(-c2c3nc(c(-c4cc[n+](C)cc4)c4ccc([nH]4)c(-c4cc[n+](C)cc4)c4nc(c(-c5cc[n+](C)cc5)c5ccc2[nH]5)C=C4)C=C3)cc1` [C18, meso[tri(N-methyl-pyridyl), mono(N-octadecyl-pyridyl)]porphine], the “Survival (% of control untreated flies)” value in the test on Bactrocera oleae flies (0.75 μM in bait) is recorded as 100 % of control untreated flies; in the test with Bactrocera oleae flies (1.25 μM in bait), 100 % of control untreated flies; in the test with Bactrocera oleae flies (2.10 μM in bait), 53 % of control untreated flies; with Bactrocera oleae flies (3.00 μM in bait), 39 % of control untreated flies; in the test with Bactrocera oleae flies (5.00 μM in bait), 16 % of control untreated flies; in the test on Bactrocera oleae flies (8.10 μM in bait) it was 3 % of control untreated flies. Also, the “Survival (% of control untreated flies)” value in test [1] (0.75 μM in bait) is given as 100 % of control untreated flies; in test [1] (1.25 μM in bait), 79 % of control untreated flies; in test [1] (2.10 μM in bait), 45 % of control untreated flies; in test [1] (3.00 μM in bait), 24 % of control untreated flies; in test [1] (5.00 μM in bait), 10 % of control untreated flies; in test [1] (8.10 μM in bait) it was 0 % of control untreated flies.
